Experiment: Inhibition of [3H]c[D-Pen2,p-Cl-Phe4,D-Pen5]enkephalin binding to delta opioid receptor of guinea pig brain plasma membrane homogenates

SMILES	IC50 [µM]
CC[C@H](C)[C@H](NC(=O)[C@H](CCCNC(=N)N)NC(=O)[C@@H]1CCCCNC(=O)C[C@H](NC(=O)[C@@H](N)Cc2ccc(O)cc2)C(=O)NCC(=O)N[C@@H](Cc2ccccc2)C(=O)N[C@@H](CC(C)C)C(=O)N1)C(=O)N[C@@H](CCCNC(=N)N)C(=O)N1CCC[C@H]1C(=O)N[C@@H](CCCCN)C(N)=O [Cyclic Lactam Peptide Analogues of Dynorphin A(1-11)-NH2Cyclic Lactam Peptide Analogues of Dynorphin A(1-11)-NH2]	0.012
CC[C@H](C)[C@H](NC(=O)[C@H](CCCNC(=N)N)NC(=O)[C@@H]1CCCCNC(=O)C[C@@H](NC(=O)[C@@H](N)Cc2ccc(O)cc2)C(=O)NCC(=O)N[C@@H](Cc2ccccc2)C(=O)N[C@@H](CC(C)C)C(=O)N1)C(=O)N[C@@H](CCCNC(=N)N)C(=O)N1CCC[C@H]1C(=O)N[C@@H](CCCCN)C(N)=O [Cyclic Lactam Peptide Analogues of Dynorphin A(1-11)-NH2]	0.91
CC[C@H](C)[C@H](NC(=O)[C@H](CCCCN)NC(=O)[C@H](CCCNC(=N)N)NC(=O)[C@H](CC(C)C)NC(=O)[C@H](Cc1ccccc1)NC(=O)[C@@H](CC(=O)O)NC(=O)CNC(=O)[C@@H](N)Cc1ccc(O)cc1)C(=O)N[C@@H](CCCNC(=N)N)C(=O)N1CCC[C@H]1C(=O)N[C@@H](CCCCN)C(N)=O [Cyclic Lactam Peptide Analogues of Dynorphin A(1-11)-NH2]	0.87

From BindingDB's records for doi:10.1021/jm950369c (University of Arizona, 1996)
